# Values quoted from earlier work as cited in patent publication US20130171093A1, “HEALING POWDER AND METHOD OF USE THEREOF” (priority 2006, published 2013).
# Key:
# [1] = system: acute mediastinitis wounds; details: 19 patients, wounds packed every 3 to 4 hours
# [2] = system: full thickness wounds in the backs of pigs; details: clean, non-infected pig wounds under Opsite
SMILES,debridement of the wound [1],"eradication of bacterial infection, average time of treatment [1] [days]",wound healing / granulation tissue formation versus wounds covered with Opsite alone [2]
"OC[C@H]1O[C@@](CO)(O[C@H]2O[C@H](CO)[C@@H](O)[C@H](O)[C@H]2O)[C@@H](O)[C@@H]1O [granular sugar, sucrose]",near complete debridement,7.6,–
"N=C(NCCCCCCNC(=N)NC(=N)Nc1ccc(Cl)cc1)NC(=N)Nc1ccc(Cl)cc1.O=C(O)[C@H](O)[C@@H](O)[C@H](O)[C@H](O)CO.O=C(O)[C@H](O)[C@@H](O)[C@H](O)[C@H](O)CO [chlorhexidine gluconate 0.2%, chlorhexidine gluconate]",–,–,delayed healing
